According to patent US20230124361A1, “SMALL MOLECULE STING ANTAGONISTS” (CURADEV PHARMA PVT. LTD., priority 2020, published 2023):
pIC50: −log10 of the molar value.

What follows are molecules tested against T1, STING (Homo sapiens, UniProt Q86WV6, G230A/H232R/R293Q/R71H) (assay: Reporter gene expression assay in THP1-Dual cells (IRF pathway Lucia luciferase, 2',3'-cGAMP stimulation)). Details: 10 min preincubation, 5 μM 2',3'-cGAMP, 20 hr, IRF reporter QUANTI-Luc, read-out: THP-1 (HAQ) Activity.
T1 construct: host or cells: THP1-Dual cells (human THP-1 monocyte line with Lucia/SEAP reporters)
T1 sequence (Q86WV6 whole entry R71H/G230A/H232R/R293Q): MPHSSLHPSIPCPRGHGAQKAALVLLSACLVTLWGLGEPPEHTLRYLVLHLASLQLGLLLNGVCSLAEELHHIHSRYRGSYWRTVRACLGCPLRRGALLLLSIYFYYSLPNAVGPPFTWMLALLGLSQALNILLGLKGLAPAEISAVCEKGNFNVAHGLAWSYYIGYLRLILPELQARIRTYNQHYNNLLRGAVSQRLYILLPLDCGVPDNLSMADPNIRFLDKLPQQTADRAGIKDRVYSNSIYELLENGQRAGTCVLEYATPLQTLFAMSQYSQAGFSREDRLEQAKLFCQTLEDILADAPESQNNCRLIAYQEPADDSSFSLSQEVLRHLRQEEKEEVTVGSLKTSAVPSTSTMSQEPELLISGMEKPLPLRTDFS
Assay type: cell-based
Method: Reporter Gene Expression Assay in THP-1 Cells
THP1-Dual™ cells (Invivogen) were derived from the human THP-1 monocyte cell line by stable integration of two inducible reporter constructs. As a result, THP1-Dual™ cells allow the simultaneous study of the IRF pathway, by assessing the activity of a secreted luciferase (Lucia) and the NF-κB pathway, by monitoring the activity of secreted SEAP. 5×10^4 THP1-Dual™ cells were seeded in 384-well plates in growth medium and preincubated with novel compounds for 10 minutes followed by stimulation with 5 μM 2′,3′-cGAMP. After 20 hr of stimulation the supernatant was removed and the IRF pathway reporter protein was readily measured in the cell culture supernatant using QUANTI-Luc™ (Invivogen), a luciferase detection reagent on a Spectramax i3X luminometer.
In the tables below, IC50 value ranges for exemplary compounds are given. The IC50 ranges are indicated as “A” for values less than or equal to 1 μM, “B” for values greater than 1 μM and less than or equal to 10 μM, and “C” for values greater than 10 μM.

Structure (SMILES)	pIC50
CC1(C)Oc2cc(NC(=O)Nc3ccc4cc[nH]c4c3)ccc2N(Cc2ccccc2)C1=O [Example 90, 1-(4-benzyl-2,2-dimethyl-3-oxo-3,4-dihydro-2H-benzo[b][1, 4]oxazin-7-yl)-3-(1H-indol-6-yl)urea]	5.00 to 6.00
Cc1cc2cc[nH]c2cc1NC(=O)Nc1ccc2c(c1)OCC(=O)N2Cc1ccccc1 [Example 91, 1-(4-benzyl-3-oxo-3,4-dihydro-2H-benzo[b][1, 4]oxazin-7-yl)-3-(5-methyl-1H-indol-6-yl)urea]	< 5.00
Cc1cc2ccc(NC(=O)Nc3ccc4c(c3)OCC(=O)N4Cc3ccccc3)cc2[nH]1 [Example 92, 1-(4-benzyl-3-oxo-3,4-dihydro-2H-benzo[b][1, 4]oxazin-7-yl)-3-(2-methyl-1H-indol-6-yl)urea]	5.00 to 6.00
O=C(Nc1ccc2c(c1)OCC(=O)N2Cc1c(F)cccc1Cl)Nc1ccc2cc[nH]c2c1 [Example 93, l-(4-(2-chloro-6-fluorobenzy 1)-3-oxo-3,4-dihydro-2H-benzo[b][i, 4]oxazin-7-yl)-3-(1H-indol-6-yl)urea]	5.00 to 6.00
O=C(Nc1ccc2c(c1)OCC(=O)N2Cc1ccc(F)cc1Cl)Nc1ccc2cc[nH]c2c1 [Example 94, 1-(4-(2-chloro-4-fluorobenzy 1)-3-oxo-3,4-dihydro-2H-benzo[b][1,4]oxazin-7-yl)-3-(1H-indol-6-yl)urea]	≥ 6.00
O=C(Nc1ccc2c(c1)OCC(=O)N2Cc1cccc(F)c1F)Nc1ccc2cc[nH]c2c1 [Example 95, 1-(4-(2,3-difluorobenzyl)-3-oxo-3,4-dihydro-2H-benzo[b][1, 4]oxazin-7-yl)-3-(1H-indol-6-yl)urea]	≥ 6.00
O=C(Nc1ccc2c(c1)OCC(=O)N2Cc1c(F)cccc1F)Nc1ccc2cc[nH]c2c1 [Example 96, 1-(4-(2,6-difluorobenzyl)-3-oxo-3,4-dihydro-2H-benzo [b][1, 4]oxazin-7-yl)-3-(1H-indol-6-yl)urea]	< 5.00
O=C(Nc1ccc2c(c1)OCC(=O)N2CC1COc2ccccc2O1)Nc1ccc2cc[nH]c2c1 (stereo not shown) [Example 97, 1-(4-((2,3-dihydrobenzo[b][1,4]dioxin-2-yl)methyl)-3-oxo-3,4-dihydro-2H-benzo[b][1,4]oxazin-7-yl)-3-(1H-indol-6-yl)urea]	≥ 6.00
NC(=O)c1cccc(CN2C(=O)COc3cc(NC(=O)Nc4ccc5cc[nH]c5c4)ccc32)c1 [Example 98, 3-((7-(3-(1H-indol-6-yl)ureido)-3-oxo-2,3-dihydro-4H-benzo[b][1,4]oxazin-4-yl)methyl)benzamide]	5.00 to 6.00
O=C(Nc1ccc2c(c1)OCC(=O)N2Cc1cc(Cl)cc(C(F)(F)F)c1)Nc1ccc2cc[nH]c2c1 [Example 99, l-(4-(3-chloro-5-(trifluoromethyl)benzyl)-3-oxo-3,4-dihydro-2H-benzo[b][1, 4]oxazin-7-yl)-3-(1H-indol-6-yl)urea]	≥ 6.00
O=C(Nc1ccc2c(c1)OCC(=O)N2CCOc1ccccc1Cl)Nc1ccc2cc[nH]c2c1 [Example 100, 1-(4-(2-(2-chlorophenoxy)ethyl)-3-oxo-3,4-dihydro-2H-benzo[b][1,4]oxazin-7-yl)-3-(1H-indol-6-yl)urea]	5.00 to 6.00

Other lines, results leading:

pIC50	Structure (SMILES)
≥ 6.00	O=C(Nc1ccc2c(c1)OCC(=O)N2Cc1ccccc1-c1ccccc1)Nc1ccc2cc[nH]c2c1 [Example 101, 1-(4-([1,1′-biphenyl]-2-ylmethyl)-3-oxo-3,4-dihydro-2H-benzo[b][1,4]oxazin-7-yl)-3-(1H-indol-6-yl)urea]
≥ 6.00	O=C(Nc1ccc2c(c1)OCC(=O)N2Cc1cc(F)cc(Cl)c1)Nc1ccc2cc[nH]c2c1 [Example 102, 1-(4-(3-chloro-5-fluorobenzyl)-3-oxo-3,4-dihydro-2H-benzo[b][1,4]oxazin-7-yl)-3-(1H-indol-6-yl)urea]
≥ 6.00	O=C(Nc1ccc2c(c1)OCC(=O)N2Cc1cc2c(cc1Cl)OCO2)Nc1ccc2cc[nH]c2c1 [Example 103, 1-(4-((6-chlorobenzo[d][1,3]dioxol-5-yl)methyl)-3-oxo-3,4-dihydro-2H-benzo[b][1,4]oxazin-7-yl)-3-(1H-indol-6-yl)urea]
≥ 6.00	O=C(Nc1ccc2c(c1)OCC(=O)N2Cc1ccc(C(F)(F)F)nc1)Nc1ccc2cc[nH]c2c1 [Example 104, 1-(1H-indol-6-yl)-3-(3-oxo-4-((6-(trifluoromethyl)pyridin-3-yl)methyl)-3,4-dihydro-2H-benzo[b][1,4]oxazin-7-yl)urea]
≥ 6.00	O=C(Nc1ccc2c(c1)OCC(=O)N2Cc1cc(F)cc(F)c1)Nc1ccc2cc[nH]c2c1 [Example 105, 1-(4-(3,5-difluorobenzyl)-3-oxo-3,4-dihydro-2H-benzo[b][1,4]oxazin-7-yl)-3-(1H-indol-6-yl)urea]
≥ 6.00	O=C(Nc1ccc2c(c1)OCC(=O)N2Cc1ccc(SC(F)(F)F)cc1)Nc1ccc2cc[nH]c2c1 [Example 106, 1-(1H-indol-6-yl)-3-(3-oxo-4-(4-((trifluoromethyl)thio)benzyl)-3,4-dihydro-2H-benzo[b][1,4]oxazin-7-yl)urea]
≥ 6.00	O=C(Nc1ccc2c(c1)OCC(=O)N2Cc1ccc(OC(F)(F)F)c(Cl)c1)Nc1ccc2cc[nH]c2c1 [Example 107, 1-(4-(3-chloro-4-(trifluoromethoxy)benzyl)-3-oxo-3,4-dihydro-2H-benzo[b][1,4]oxazin-7-yl)-3-(1H-indol-6-yl)urea]
≥ 6.00	Cc1cc(CN2C(=O)COc3cc(NC(=O)Nc4ccc5cc[nH]c5c4)ccc32)ccc1F [Example 108, 1-(4-(4-fluoro-3-methylbenzyl)-3-oxo-3,4-dihydro-2H-benzo[b][1,4]oxazin-7-yl)-3-(1H-indol-6-yl)urea]
≥ 6.00	O=C(Nc1ccc2c(c1)OCC(=O)N2Cc1ccc(OC(F)F)cc1)Nc1ccc2cc[nH]c2c1 [Example 109, 1-(4-(4-(difluoromethoxy)benzyl)-3-oxo-3,4-dihydro-2H-benzo[b][1,4]oxazin-7-yl)-3-(1H-indol-6-yl)urea]
5.00 to 6.00	O=C(Nc1ccc2c(c1)OCC(=O)N2CCc1ccccc1Cl)Nc1ccc2cc[nH]c2c1 [Example 110, 1-(4-(2-chlorophenethyl)-3-oxo-3,4-dihydro-2H-benzo[b][1,4]oxazin-7-yl)-3-(1H-indol-6-yl)urea]
5.00 to 6.00	O=C(Nc1ccc2c(c1)OCC(=O)N2Cc1ccc(F)c(Cl)c1)Nc1ccc2cc[nH]c2c1 [Example 111, 1-(4-(3-chloro-4-fluorobenzyl)-3-oxo-3,4-dihydro-2H-benzo[b][1,4]oxazin-7-yl)-3-(1H-indol-6-yl)urea]
≥ 6.00	O=C(Nc1ccc2c(c1)OCC(=O)N2Cc1cc(F)cc(C(F)(F)F)c1)Nc1ccc2cc[nH]c2c1 [Example 112, 1-(4-(3-fluoro-5-(trifluoromethyl)benzyl)-3-oxo-3,4-dihydro-2H-benzo[b][1,4]oxazin-7-yl)-3-(1H-indol-6-yl)urea]
5.00 to 6.00	O=C(Nc1ccc2c(c1)OCC(=O)N2Cc1ccccc1C(F)(F)F)Nc1ccc2cc[nH]c2c1 [Example 113, 1-(1H-indol-6-yl)-3-(3-oxo-4-(2-(trifluoromethyl)benzyl)-3,4-dihydro-2H-benzo[b][1,4]oxazin-7-yl)urea]
≥ 6.00	O=C(Nc1ccc2c(c1)OCC(=O)N2Cc1ccc2c(c1)OCO2)Nc1ccc2cc[nH]c2c1 [Example 114, 1-(4-(benzo[d][1,3]dioxol-5-ylmethyl)-3-oxo-3,4-dihydro-2H-benzo[b][1,4]oxazin-7-yl)-3-(1H-indol-6-yl)urea]
